From patent publication US12312332B2 (Merck Sharp & Dohme LLC., priority 2019, dated 2025)

Molecular target: T1, human OX2R (Homo sapiens, UniProt O43614)
T1 construct: expressed in transfected cells; host or cells: Chinese hamster ovary (CHO) cells, kept under G418 selection
T1 sequence (O43614 1-444): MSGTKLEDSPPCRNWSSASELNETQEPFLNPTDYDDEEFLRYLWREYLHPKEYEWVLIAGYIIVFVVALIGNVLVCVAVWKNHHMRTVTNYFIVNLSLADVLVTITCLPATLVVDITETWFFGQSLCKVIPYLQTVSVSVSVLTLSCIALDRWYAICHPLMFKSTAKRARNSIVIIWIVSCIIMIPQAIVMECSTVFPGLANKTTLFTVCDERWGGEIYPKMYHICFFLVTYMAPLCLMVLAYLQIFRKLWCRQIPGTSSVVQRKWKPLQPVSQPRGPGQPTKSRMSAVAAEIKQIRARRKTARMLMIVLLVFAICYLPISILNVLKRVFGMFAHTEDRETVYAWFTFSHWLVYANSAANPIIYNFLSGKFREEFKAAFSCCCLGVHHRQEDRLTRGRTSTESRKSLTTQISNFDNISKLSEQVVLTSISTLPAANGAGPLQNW
Test: IPOne (IP-One) orexin receptor agonist assay in CHO cells expressing human OX2R
Format: cell-based
Conditions: for EC50: CHO cells expressing human OX2R, IP-One detection, 2 hours incubation, four parameter logistic fit, read-out: OX2R Potency, EC50; for % max agonist effect (Emax): human OX2R, percentage of sample raw value/mean max effect (reference compound at 1 uM with 100% activity)

| SMILES | EC50 [nM] | % max agonist effect (Emax) [%] |
| --- | --- | --- |
| CS(=O)(=O)N[C@H]1CCN(c2cc(O)ncc2F)[C@H]1CO[C@H]1CC[C@@H](c2ccccc2)CC1 [Example 153, N-((2R,3S)-1-(5-fluoro-2-hydroxypyridin-4-yl)-2-((((CIS)-4-phenylcyclohexyl)oxy)methyl)pyrrolidin-3-yl)methanesulfonamide] | 169 | 100.8 |
| CS(=O)(=O)N[C@H]1CCN(c2ccncc2C(F)(F)F)[C@H]1CO[C@H]1CC[C@@H](c2ccccc2)CC1 [Example 70, N-((2R,3S)-2-((((CIS)-4-phenylcyclohexyl)oxy)methyl)-1-(3-(trifluoromethyl)pyridin-4-yl)pyrrolidin-3-yl)methanesulfonamide] | 1670 | 96.0 |
| CS(=O)(=O)N[C@H]1CCN(c2cnc(C3CC3)cn2)[C@H]1CO[C@H]1CC[C@@H](c2ccccc2)CC1 [Example 66, N-((2R,3S)-1-(5-cyclopropylpyrazin-2-yl)-2-((((CIS)-4-phenylcyclohexyl)oxy)methyl)pyrrolidin-3-yl)methanesulfonamide] | 178 | 99.2 |
| Cc1ccnc(N2CC[C@H](NS(C)(=O)=O)[C@@H]2CO[C@H]2CC[C@@H](c3ccccc3)CC2)c1 [Example 144, N-((2R,3S)-1-(4-methylpyridin-2-yl)-2-((((CIS)-4-phenylcyclohexyl)oxy)methyl)pyrrolidin-3-yl)methanesulfonamide] | 794 | 98 |
| COc1ncc(N2CC[C@H](NS(C)(=O)=O)[C@@H]2CO[C@H]2CC[C@@H](c3ccccc3)CC2)cc1C [Example 55, N-((2R,3S)-1-(6-methoxy-5-methylpyridin-3-yl)-2-((((CIS)-4-phenylcyclohexyl)oxy)methyl)pyrrolidin-3-yl)methanesulfonamide] | 2380 | 91.4 |
| CS(=O)(=O)N[C@H]1CCN(c2cccc(C#N)n2)[C@H]1CO[C@H]1CC[C@@H](c2ccccc2)CC1 [Example 139, N-((2R,3S)-1-(6-cyanopyridin-2-yl)-2-((((CIS)-4-phenylcyclohexyl)oxy)methyl)pyrrolidin-3-yl)methanesulfonamide] | 1400 | 68.5 |
| CS(=O)(=O)N[C@H]1CCN(c2cc(O)ncn2)[C@H]1CO[C@H]1CC[C@@H](c2ccccc2)CC1 [Example 150, N-((2R,3S)-1-(6-hydroxypyrimidin-4-yl)-2-((((CIS)-4-phenylcyclohexyl)oxy)methyl)pyrrolidin-3-yl)methanesulfonamide] | 397 | 99.4 |
| Cc1nc(-c2ccccc2)sc1N1CC[C@H](NS(C)(=O)=O)[C@@H]1CO[C@H]1CC[C@@H](c2ccccc2)CC1 (relative stereo) [Example 11, N-((CIS)-1-(4-methyl-2-phenylthiazol-5-yl)-2-((((CIS)-4-phenylcyclohexyl)oxy)methyl)pyrrolidin-3-yl)methanesulfonamide] | 3450 | 87.7 |
| CS(=O)(=O)N[C@H]1CCN(c2ncccc2C(F)F)[C@H]1CO[C@H]1CC[C@@H](c2ccccc2)CC1 [Example 124, N-((2R,3S)-1-(3-(difluoromethyl)pyridin-2-yl)-2-((((CIS)-4-phenylcyclohexyl)oxy)methyl)pyrrolidin-3-yl)methanesulfonamide] | 150 | 100.2 |
| CS(=O)(=O)N[C@H]1CCN(c2ccns2)[C@H]1CO[C@H]1CC[C@@H](c2ccccc2)CC1 [Example 18, N-((2R,3S)-1-(isothiazol-5-yl)-2-((((CIS)-4-phenylcyclohexyl)oxy)methyl)pyrrolidin-3-yl)methanesulfonamide] | 2910 | 87.4 |
| CS(=O)(=O)N[C@H]1CCN(c2cncc3ccccc23)[C@H]1CO[C@H]1CC[C@@H](c2ccccc2)CC1 (relative stereo) [Example 4, N-((CIS)-1-(isoquinolin-4-yl)-2-((((CIS)-4-phenylcyclohexyl)oxy)methyl)pyrrolidin-3-yl)methanesulfonamide] | 1070 | 97.3 |
| CS(=O)(=O)N[C@H]1CCN(c2cnc(C(F)(F)F)nc2)[C@H]1CO[C@H]1CC[C@@H](c2ccccc2)CC1 [Example 41] | 172 | 100.2 |
| CS(=O)(=O)N[C@H]1CCN(c2ccc(=O)n(C(F)F)c2)[C@H]1CO[C@H]1CC[C@@H](c2ccccc2)CC1 [Example 23, N-((2R,3S)-1-(1-(difluoromethyl)-6-oxo-1,6-dihydropyridin-3-yl)-2-((((CIS)-4-phenylcyclohexyl)-oxy)methyl)pyrrolidin-3 - yl)methanesulfonamide] | 4640 | 81.2 |
| CS(=O)(=O)N[C@H]1CCN(c2ccccn2)[C@H]1CO[C@H]1CC[C@@H](c2ccccc2)CC1 [Example 16, N-((2R,3S)-2-((((CIS)-4-phenylcyclohexyl)oxy)methyl)-1-(pyridin-2-yl)pyrrolidin-3-yl)methanesulfonamide] | 174 | 101.3 |

Other lines, results leading:

| EC50 [nM] | % max agonist effect (Emax) [%] | SMILES |
| --- | --- | --- |
| 148 | 99.9 | Cn1ccc(=O)c(F)c1N1CC[C@H](NS(C)(=O)=O)[C@@H]1CO[C@H]1CC[C@@H](c2ccccc2)CC1 [Example 86, N-((2R,3S)-1-(3-fluoro-1-methyl-4-oxo-1,4-dihydropyridin-2-yl)-2-((((CIS)-4-phenylcyclohexyl)oxy)methyl)pyrrolidin-3-yl)methanesulfonamide] |
| 24.3 | 98.5 | CC(C)[C@H]1CC[C@@H](OC[C@H]2[C@@H](NS(C)(=O)=O)CCN2c2nccc(O)c2F)CC1 [Example 162, N-((2R,3S)-1-(3-fluoro-4-hydroxypyridin-2-yl)-2-((((CIS)-4-isopropylcyclohexyl)oxy)methyl)pyrrolidin-3-yl) methanesulfonamide] |
| 2.6 | 101.5 | Cn1nnnc1N1CC[C@H](NS(C)(=O)=O)[C@@H]1CO[C@H]1CC[C@@H](c2ccccc2)CC1 [Example 31, N-((2R,3S)-1-(1-methyl-1H-tetrazol-5-yl)-2-((((CIS)-4-phenylcyclohexyl)oxy)methyl)pyrrolidin-3-yl)methanesulfonamide] |
| 6.1 | 101.7 | CS(=O)(=O)N[C@H]1CCN(c2nccc(O)c2F)[C@H]1COC1CCC(c2ccccc2C(F)(F)F)CC1 (stereo partly drawn) [Example 160, N-((2R,3S)-1-(3-fluoro-4-hydroxypyridin-2-yl)-2-(((4-(2-(trifluoromethyl)phenyl)cyclohexyl)-oxy)methyl)pyrrolidin-3-yl)methanesulfonamide] |
| 149 | 100.0 | Cc1c(N2CC[C@H](NS(C)(=O)=O)[C@@H]2CO[C@H]2CC[C@@H](c3ccccc3)CC2)cnn1C [Example 30, N-((2R,3S)-1-(1,5-dimethyl-1H-pyrazol-4-yl)-2-((((CIS)-4-phenylcyclohexyl)oxy)methyl)pyrrolidin-3-yl)methanesulfonamide] |
| 108 | 100 | Cn1cccc(N2CC[C@H](NS(C)(=O)=O)[C@@H]2CO[C@H]2CC[C@@H](c3ccccc3)CC2)c1=O [Example 111, N-((2R,3S)-1-(1-methyl-2-oxo-1,2-dihydropyridin-3-yl)-2-((((CIS)-4-phenylcyclohexyl)oxy)methyl)pyrrolidin-3-yl)methanesulfonamide] |
| 0.72 | 98.6 | C[C@@H]1C[C@H](NS(C)(=O)=O)[C@H](CO[C@H]2CC[C@@H](c3cccc(F)c3)CC2)N1c1[nH]ccc(=O)c1F [Example 164, N-((2R,3S,5R)-1-(3-fluoro-4-oxo-1,4-dihydropyridin-2-yl)-2-((((CIS)-4-(3-fluorophenyl)cyclohexyl)oxy)methyl)-5-methylpyrrolidin-3-yl)methanesulfonamide] |
| 1.1 | 102.4 | CS(=O)(=O)N[C@H]1CCN(c2cc(O)c(Cl)cn2)[C@H]1CO[C@H]1CC[C@@H](c2ccccc2)CC1 [Example 113, N-((2R,3S)-1-(5-chloro-4-hydroxypyridin-2-yl)-2-((((CIS)-4-phenylcyclohexyl)oxy)methyl)pyrrolidin-3-yl)methanesulfonamide] |
| 70.2 | 98.9 | CS(=O)(=O)N[C@H]1CCN(c2nccs2)[C@H]1CO[C@H]1CC[C@@H](c2ccccc2)CC1 [Example 27, N-((2R,3S)-2-((((CIS)-4-phenylcyclohexyl)oxy)methyl)-1-(thiazol-2-yl)pyrrolidin-3-yl)methanesulfonamide] |
| 108 | 98.9 | CS(=O)(=O)N[C@H]1CCN(c2cc(=O)c(F)cn2CC(F)F)[C@H]1CO[C@H]1CC[C@@H](c2ccccc2)CC1 [Example 89, N-((2R,3S)-1-(1-(2,2-difluoroethyl)-5-fluoro-4-oxo-1,4-dihydropyridin-2-yl)-2-((((CIS)-4-phenylcyclohexyl)oxy)methyl)pyrrolidin-3-yl)methanesulfonamide] |
| 102 | 100.4 | CS(=O)(=O)N[C@H]1CCN(c2ccon2)[C@H]1CO[C@H]1CC[C@@H](c2ccccc2)CC1 [Example 17, N-((2R,3S)-1-(isoxazol-3-yl)-2-((((CIS)-4-phenylcyclohexyl)oxy)methyl)pyrrolidin-3-yl)methanesulfonamide] |
